Measured values: patent publication US20070141568A1, “Method for determining the presence of one or more ligands in a sample” (BioDetection Systems B.V., priority 2002, published 2007)
Where two headings read alike, the source gives them in different places.

Assays:
[1] = target: T1, progesterone receptor (PR) (Homo sapiens, UniProt P06401); assay: U2-OS PR cell line (pSG5-hPR, 3×HRE-TATA-Luc reporter); type: cell-based
T1 construct: expressed in transfected cells; host or cells: human U2-OS cells, stably transfected with pSG5-hPR
T1 sequence (P06401 1-933): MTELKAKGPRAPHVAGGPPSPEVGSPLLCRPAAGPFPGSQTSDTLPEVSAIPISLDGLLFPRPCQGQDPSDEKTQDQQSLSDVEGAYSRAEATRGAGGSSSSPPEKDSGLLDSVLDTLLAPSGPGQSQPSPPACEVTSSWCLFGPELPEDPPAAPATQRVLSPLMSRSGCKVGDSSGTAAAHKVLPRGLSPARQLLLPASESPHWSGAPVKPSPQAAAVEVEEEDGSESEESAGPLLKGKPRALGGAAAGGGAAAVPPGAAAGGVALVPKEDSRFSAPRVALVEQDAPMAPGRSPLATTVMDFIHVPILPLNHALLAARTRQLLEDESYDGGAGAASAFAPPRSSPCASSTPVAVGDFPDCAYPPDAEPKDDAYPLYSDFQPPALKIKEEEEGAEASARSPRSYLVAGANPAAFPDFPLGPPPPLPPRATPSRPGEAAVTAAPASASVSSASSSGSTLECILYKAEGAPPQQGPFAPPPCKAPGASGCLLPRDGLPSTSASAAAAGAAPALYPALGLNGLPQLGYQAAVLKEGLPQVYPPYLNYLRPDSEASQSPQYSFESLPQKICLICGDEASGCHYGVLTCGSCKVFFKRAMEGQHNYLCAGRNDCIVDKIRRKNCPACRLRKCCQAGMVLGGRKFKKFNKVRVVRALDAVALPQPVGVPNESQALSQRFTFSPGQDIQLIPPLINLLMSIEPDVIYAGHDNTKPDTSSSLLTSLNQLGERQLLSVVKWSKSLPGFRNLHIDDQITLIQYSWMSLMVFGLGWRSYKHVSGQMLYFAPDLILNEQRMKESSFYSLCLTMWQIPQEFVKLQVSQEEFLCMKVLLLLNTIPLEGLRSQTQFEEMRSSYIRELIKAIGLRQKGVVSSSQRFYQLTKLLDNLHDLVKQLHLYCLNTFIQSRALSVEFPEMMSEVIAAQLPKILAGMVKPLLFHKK
Source text: Reporter constructs were made using specific synthetic multimerized hormone responsive elements which were cloned upstream of the synthetic TATA box in the pGL3-TATA-Luc vector. Stable transfected cell lines were made, when necessary co-transfected with a specific receptor-containing expression plasmid pSG5.
The reporter construct comprises 3 tandem repeats of the hormone responsive element (HRE) oligonucleotide:
upstream of the minimal adenovirus E1B TATA promotor sequence ([…]) inserted in the multiple cloning site of the luciferase reporter construct pGL3 (as described in Legler et al., supra).
In order to determine the responsiveness of the U2-OS based steroid reporter cell lines, cells were plated in 96-wells plates and treated for 24 hours with hormone in the culture medium containing 5% charcoal-stripped serum.
The PR cell line was generated by stably transfecting the human U2-OS cell line with pSG5-hPR and the 3×HRE-TATA-Luc reporter constructs.

[2] = target: T2, ER-alpha (Homo sapiens, UniProt P03372); assay: U2-OS ER-alpha luciferase reporter cell line; type: cell-based
T2 construct: expressed in transfected cells
T2 sequence (P03372 1-595): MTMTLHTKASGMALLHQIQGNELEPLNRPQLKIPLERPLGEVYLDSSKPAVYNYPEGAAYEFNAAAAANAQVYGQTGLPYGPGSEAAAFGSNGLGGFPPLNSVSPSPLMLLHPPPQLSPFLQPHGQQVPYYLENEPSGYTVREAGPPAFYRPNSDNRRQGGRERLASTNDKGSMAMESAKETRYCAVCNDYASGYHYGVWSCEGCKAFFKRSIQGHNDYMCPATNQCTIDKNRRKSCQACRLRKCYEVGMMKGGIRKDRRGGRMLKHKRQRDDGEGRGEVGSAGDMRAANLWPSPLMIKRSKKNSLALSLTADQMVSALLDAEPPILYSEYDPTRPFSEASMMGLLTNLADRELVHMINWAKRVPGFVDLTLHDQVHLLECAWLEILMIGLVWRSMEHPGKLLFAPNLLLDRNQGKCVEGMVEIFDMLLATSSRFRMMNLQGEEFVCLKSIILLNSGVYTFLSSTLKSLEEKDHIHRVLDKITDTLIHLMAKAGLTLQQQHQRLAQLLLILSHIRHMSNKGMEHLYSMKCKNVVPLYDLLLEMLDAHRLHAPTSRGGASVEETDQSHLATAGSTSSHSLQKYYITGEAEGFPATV

Structure (SMILES) | EC50 [1] [µM] | EC50 [2] [µM] | further results
C[C@]12CC[C@H]3[C@@H](CCC4=CC(=O)CC[C@@H]43)[C@@H]1CC[C@@H]2O [Nandrolone] | 0.00501 | 0.0398 | 
C[C@]12CCC(=O)C[C@@H]1CC[C@@H]1[C@@H]2CC[C@]2(C)[C@@H](O)CC[C@@H]12 [dihydro-testosterone, 5α-dihydro-testosterone] | 3.98 |  | 
C[C@]12CC[C@H]3[C@@H](CCC4=CC(=O)CC[C@@]43C)[C@@H]1CC[C@@H]2O [testosterone] | 7.94 |  | 
C[C@@H]1C[C@H]2[C@@H]3CCC4=CC(=O)C=C[C@]4(C)[C@@]3(F)[C@@H](O)C[C@]2(C)[C@@]1(O)C(=O)CO [Dexamethasone] |  |  | EC50 ([1]; logEC50, U2-OS reporter cell line, 24 hours with hormone, 5% charcoal-stripped serum, read-out: potency (logEC50) PR (converted)): > 10 µM
C[C@]12CC[C@H](O)CC1=CC[C@@H]1[C@@H]2CC[C@]2(C)C(=O)CC[C@@H]12 [DHEA] |  |  | potency (logEC50) PR ([1]; logEC50, U2-OS reporter cell line, 24 hours with hormone, 5% charcoal-stripped serum): >−5.0
C[C@]12CCC(=O)C=C1CC[C@@H]1[C@@H]2CC[C@]2(C)C(=O)CC[C@@H]12 [androstenedione] |  | > 10 | 
C[C@]1(O)CC[C@H]2[C@@H]3CCC4=CC(=O)CCC4=C3C=C[C@@]21C [R1881] |  | > 10 | 
